≈ marks a conversion by molar mass, not a printed value. Calls of active or inactive are those of the source. The rule behind the calls is not given here.
Key:
Suid alphaherpesvirus 1 [1] = test: Antiviral activity against Suid alphaherpesvirus 1 infected in pig PK-15 cells assessed as inhibition of viral growth; format: functional; details: Suid alphaherpesvirus 1, in Sus scrofa
Suid alphaherpesvirus 1 [2] = test: Antiviral activity against Suid alphaherpesvirus 1 infected in pig PK-15 cells assessed as inhibition of replication pretreated with compound for 2 hrs followed by viral infection and measured after 48 hrs; format: functional, organism-based; details: Suid alphaherpesvirus 1, PK-15
Suid alphaherpesvirus 1 [3] = test: Antiviral activity against Suid alphaherpesvirus 1 infected in pig PK-15 cells infected for 1 hr followed by compound addition and measured after 48 hrs; format: functional, organism-based; details: Suid alphaherpesvirus 1, PK-15
Suid alphaherpesvirus 1 [4] = test: Antiviral activity against Suid alphaherpesvirus 1 infected in pig PK-15 cells; format: functional, organism-based; details: Suid alphaherpesvirus 1, PK-15
Suid alphaherpesvirus 1 [5] = test: Antiviral activity against Suid alphaherpesvirus 1; format: functional, organism-based
Suid alphaherpesvirus 1 [6] = test: Antiviral activity against Suid alphaherpesvirus 1 infected in pig PK-15 cells assessed as inhibition of viral replication pretreated with compound for 2 hrs followed by viral infection and measured after 24 hrs by ELISA analysis; format: functional, organism-based; details: Suid alphaherpesvirus 1, PK-15
Suid alphaherpesvirus 1 [7] = test: Antiviral activity against Suid alphaherpesvirus 1 infected in pig PK-15 cells assessed as inhibition of viral replication; format: functional, organism-based; details: Suid alphaherpesvirus 1, PK-15
[8] = Cytotoxicity against pig PK-15 cells; format: toxicity, cell-based, Sus scrofa
[9] = Cytotoxicity against pig PK-15 cells assessed as cell viability incubated for 72 hrs by CCK-8 assay; format: toxicity, cell-based, Sus scrofa
Suid alphaherpesvirus 1 [10] = test: Antiviral activity against Suid alphaherpesvirus 1 infected in pig PK-15 cells assessed as inhibition of replication at 1 uM pretreated with compound for 2 hrs followed by viral infection and measured after 48 hrs (reference value: 99.6%); format: functional; details: Suid alphaherpesvirus 1, PK-15, in Sus scrofa, time 50 hrs
[11] = AUC (0 to infinity) in male Kunming mouse at 30 mg/kg, ip measured up to 8 hrs by LC-MS/MS analysis; format: ADME, organism-based; details: in vivo
[12] = MRT (0 to infinity) in male Kunming mouse at 30 mg/kg, ip measured up to 8 hrs by LC-MS/MS analysis; format: ADME, organism-based; details: in vivo
[13] = AUC (0 to t) in male Kunming mouse at 30 mg/kg, ip measured up to 8 hrs by LC-MS/MS analysis; format: ADME, organism-based; details: in vivo
Suid alphaherpesvirus 1 [14] = test: Antiviral activity against Suid alphaherpesvirus 1 infected in Kunming mouse assessed as reduction in viral copy numbers in brain at 30 mg/kg, ip measured on day 6 by qPCR analysis; format: functional; details: time 6 day
Suid alphaherpesvirus 1 [15] = test: Antiviral activity against Suid alphaherpesvirus 1 infected in Kunming mouse assessed as inhibition of viral copy numbers in brain at 30 mg/kg, ip measured on day 6 by qPCR analysis; format: functional; details: Suid alphaherpesvirus 1, 144 h, time 6 day
[16] = Cmax in male Kunming mouse at 30 mg/kg, ip measured up to 8 hrs by LC-MS/MS analysis; format: ADME, organism-based; details: in vivo
Suid alphaherpesvirus 1 [17] = test: Antiviral activity against Suid alphaherpesvirus 1 infected in Kunming mouse assessed as reduction in viral copy numbers in blood at 30 mg/kg, ip measured on day 6 by qPCR analysis; format: functional, organism-based; details: time 6.0 day
Suid alphaherpesvirus 1 [18] = test: Antiviral activity against Suid alphaherpesvirus 1 infected in pig PK-15 cells assessed as inhibition of replication at >200 nM pretreated with compound for 2 hrs followed by viral infection and measured after 48 hrs; format: functional; details: time 50 hrs
[19] = Half life in male Kunming mouse at 30 mg/kg, ip measured upto 8 hrs by LC-MS/MS analysis; format: ADME, organism-based; details: in vivo
[20] = MRT (0 to t) in male Kunming mouse at 30 mg/kg, ip measured up to 8 hrs by LC-MS/MS analysis; format: ADME, organism-based; details: in vivo
[21] = Tmax in male Kunming mouse at 30 mg/kg, ip measured up to 8 hrs by LC-MS/MS analysis; format: ADME, organism-based; details: in vivo
Suid alphaherpesvirus 1 [22] = test: Antiviral activity against Suid alphaherpesvirus 1 infected in Kunming mouse assessed as survival at 30 mg/kg, ip measured at 7.3 days; format: functional, organism-based; details: time 7.3 day

For `O=C(NCc1cc(Cl)ccc1Cl)c1cn(C2CC2)c2cc(N3CCNCC3)c(F)cc2c1=O`, the MIC80 (Suid alphaherpesvirus 1 [1]) was 8 nM (≈ 3.92 ng/mL) and the EC50 (Suid alphaherpesvirus 1 [2]) was 0.71 nM.
`Cc1cc(O)c2c(c1)C(=O)c1cc(O)cc(O)c1C2=O` [EMODIN] showed an EC50 (Suid alphaherpesvirus 1 [3]) of 470 nM.
Molecule `O=C(NCc1ccc(Cl)c(Cl)c1)c1cn(C2CC2)c2cc(N3CCNCC3)c(F)cc2c1=O` has an MIC80 (Suid alphaherpesvirus 1 [1]) of 8 nM (≈ 3.92 ng/mL) and an EC50 (Suid alphaherpesvirus 1 [2]) of 0.25 nM.
`Oc1cc(O)cc(/C=C/c2ccc(O)c(O)c2)c1` [PICEATANNOL] showed an EC50 (Suid alphaherpesvirus 1 [4]) of 126 nM.
`CCCCCC/C=C\CCCCCCCc1cccc(O)c1C(=O)O` [GINGKOLIC ACID] showed an EC50 (Suid alphaherpesvirus 1 [5]) of 3.4 µM.
`C[C@]12CC[C@H](O)C[C@H]1CC[C@@H]1[C@@H]2CC[C@]2(C)[C@@H](c3ccc(=O)oc3)CC[C@]12O` [BUFALIN] gave an EC50 (Suid alphaherpesvirus 1 [6]) of 33 nM.
Work on `O=C(NCc1cccc(Cl)c1)c1cn(C2CC2)c2cc(N3CCNCC3)c(F)cc2c1=O` yielded an MIC80 (Suid alphaherpesvirus 1 [1]) of 40 nM (≈ 18.2 ng/mL) and an EC50 (Suid alphaherpesvirus 1 [2]) of 10.2 nM.
`O=C(NCc1cc(Cl)ccc1F)c1cn(Cc2ccccc2)c2cc(N3CCNCC3)c(F)cc2c1=O` showed an MIC80 (Suid alphaherpesvirus 1 [1]) of 40 nM (≈ 20.9 ng/mL) and an EC50 (Suid alphaherpesvirus 1 [2]) of 2.11 nM.
Work on `CN(C)CCNC(=O)c1cn(C)c2ccc(CN3CCOCC3)cc2c1=O` yielded an EC50 (Suid alphaherpesvirus 1 [7]) of 0.014 nM and a CC50 [8] of 344 µM.
In the case of `O=C(NCc1ccc(Cl)cc1)c1cn(C2CC2)c2cc(N3CCNCC3)c(F)cc2c1=O`, the CC50 at 72 h [9] is reported as 9.3 µM, the MIC80 (Suid alphaherpesvirus 1 [1]) is reported as 200 nM (≈ 91 ng/mL) and the EC50 (Suid alphaherpesvirus 1 [2]) is reported as 2.21 nM.
For `O=C(O)c1cn(C2CC2)c2cc(N3CCNCC3)c(F)cc2c1=O` [CIPROFLOXACIN], the inhibition at 1 µM (Suid alphaherpesvirus 1 [10]) was 65%.
`CCn1cc(C(=O)O)c(=O)c2cc(F)c(N3CCNCC3)cc21` [NORFLOXACIN] showed an inhibition at 1 µM (Suid alphaherpesvirus 1 [10]) of 66%.
For `O=C(NCc1cc(Cl)ccc1F)c1cn(-c2ccccc2)c2cc(N3CCNCC3)c(F)cc2c1=O`, the AUC(0-inf) [11] was 1330 ng·h/mL, the MRT inf [12] was 5.34 h and the AUC(0-t) at 8 h [13] was 1020 ng·h/mL. The Activity (Suid alphaherpesvirus 1 [14]) was 280 g⁻¹, the inhibition in vivo at 30 mg/kg (Suid alphaherpesvirus 1 [15]) was greater than 99% and the MIC80 (Suid alphaherpesvirus 1 [1]) was 1.6 nM (≈ 0.814 ng/mL). For the same molecule, the Cmax [16] was 342 ng/mL, the EC50 (Suid alphaherpesvirus 1 [2]) was 0.29 nM and the Activity (Suid alphaherpesvirus 1 [17]) was “Active”. The “inhibition (INH)” value (Suid alphaherpesvirus 1 [18]) was “<=99.5%”, the half-life [19] was 194 min and the MRT last at 8 h [20] was 3.15 h. The Tmax [21] was 1.5 h and the Activity (Suid alphaherpesvirus 1 [22]) was “Active”.
Work on `O=C(NCc1cc(Cl)ccn1)c1cn(C2CC2)c2cc(N3CCNCC3)c(F)cc2c1=O` yielded an MIC80 (Suid alphaherpesvirus 1 [1]) of 8 nM (≈ 3.65 ng/mL) and an EC50 (Suid alphaherpesvirus 1 [2]) of 0.39 nM.
With `CCn1cc(C(=O)NCc2cccc(Cl)c2)c(=O)c2cc(F)c(N3CCNCC3)cc21` the MIC80 (Suid alphaherpesvirus 1 [1]) was 8 nM (≈ 3.54 ng/mL) and the EC50 (Suid alphaherpesvirus 1 [2]) was 0.85 nM.
Work on `Cn1cc(C(=O)NCc2ccc(Cl)cc2)c(=O)c2cc(CN3CCOCC3)ccc21` yielded an EC50 (Suid alphaherpesvirus 1 [5]) of 0.0001 µM, an MIC80 (Suid alphaherpesvirus 1 [1]) of 0.32 nM (≈ 0.136 ng/mL) and an EC50 (Suid alphaherpesvirus 1 [2]) of 1.45 nM. It also gave a CC50 [8] of 45.2 µM.
Molecule `Oc1ccc(O)cc1` [HYDROQUINONE] has an EC50 (Suid alphaherpesvirus 1 [5]) of 8.3 µM.
In the case of `O=C(NCc1cc(Cl)ccc1F)c1cn(C2CC2)c2cc(N3CCNCC3)c(F)cc2c1=O`, the CC50 at 72 h [9] is reported as greater than 100 µM, the MIC80 (Suid alphaherpesvirus 1 [1]) is reported as 1.6 nM (≈ 0.757 ng/mL) and the EC50 (Suid alphaherpesvirus 1 [2]) is reported as 0.21 nM. The “inhibition (INH)” value (Suid alphaherpesvirus 1 [18]) was “<=99.5%”.
